The results in this text go back to patent US12589156B2, “Benzimidazole and benzimidazolone based protac compounds for the targeted degradation of leucine rich repeat kinase 2 (LRRK2)” (Arvinas Operations, Inc., priority 2023, dated 2026).

The test addresses T1, WT LRRK2 (Homo sapiens, UniProt Q5S007).
T1 construct: endogenous in cells; host or cells: HEK293 (endogenous LRRK2 gene knock-in tagged with HiBit; stably expressing CMV-driven firefly luciferase)
Nature of the test: LRRK2 HiBit degradation assay (Nano-Glo Dual Luciferase) in HEK293 cells with HiBit-tagged endogenous LRRK2. Format: cell-based. As to conditions: for WT LRRK2 **Dmax (%) / Dmax: maximal degradation. The method, boiled down: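 HEK293 cells carrying endogenous C-terminally HiBit-tagged LRRK2 and stably expressing CMV-driven firefly luciferase were treated for 24 h at 37° C with an 11-point 1:3 series from a 1 μM final top concentration. Nano-Glo Dual Luciferase read LRRK2-HiBit against firefly signal. Alamar Blue gave viability, and signals were normalized to DMSO median before curve fitting.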

Setting [1] is: Table 2, HiBit-tagged LRRK2 in HEK293 cells, 24 hours treatment, starting concentration 1 μM.
[2] abbreviates: Table 2, HiBit-tagged LRRK2 in HEK293 cells, 24 hours treatment.
Setting [3] is: HEK293, Table 2, HiBit-tagged LRRK2 in HEK293 cells, 24 hours treatment.
The mark [4] stands for this setting: HEK293, Table 3, comparison with direct comparators.
[5] abbreviates: Table 3, comparison with direct comparators, HiBit-tagged LRRK2 in HEK293 cells, 24 hours treatment.

T1 sequence (Q5S007 whole entry): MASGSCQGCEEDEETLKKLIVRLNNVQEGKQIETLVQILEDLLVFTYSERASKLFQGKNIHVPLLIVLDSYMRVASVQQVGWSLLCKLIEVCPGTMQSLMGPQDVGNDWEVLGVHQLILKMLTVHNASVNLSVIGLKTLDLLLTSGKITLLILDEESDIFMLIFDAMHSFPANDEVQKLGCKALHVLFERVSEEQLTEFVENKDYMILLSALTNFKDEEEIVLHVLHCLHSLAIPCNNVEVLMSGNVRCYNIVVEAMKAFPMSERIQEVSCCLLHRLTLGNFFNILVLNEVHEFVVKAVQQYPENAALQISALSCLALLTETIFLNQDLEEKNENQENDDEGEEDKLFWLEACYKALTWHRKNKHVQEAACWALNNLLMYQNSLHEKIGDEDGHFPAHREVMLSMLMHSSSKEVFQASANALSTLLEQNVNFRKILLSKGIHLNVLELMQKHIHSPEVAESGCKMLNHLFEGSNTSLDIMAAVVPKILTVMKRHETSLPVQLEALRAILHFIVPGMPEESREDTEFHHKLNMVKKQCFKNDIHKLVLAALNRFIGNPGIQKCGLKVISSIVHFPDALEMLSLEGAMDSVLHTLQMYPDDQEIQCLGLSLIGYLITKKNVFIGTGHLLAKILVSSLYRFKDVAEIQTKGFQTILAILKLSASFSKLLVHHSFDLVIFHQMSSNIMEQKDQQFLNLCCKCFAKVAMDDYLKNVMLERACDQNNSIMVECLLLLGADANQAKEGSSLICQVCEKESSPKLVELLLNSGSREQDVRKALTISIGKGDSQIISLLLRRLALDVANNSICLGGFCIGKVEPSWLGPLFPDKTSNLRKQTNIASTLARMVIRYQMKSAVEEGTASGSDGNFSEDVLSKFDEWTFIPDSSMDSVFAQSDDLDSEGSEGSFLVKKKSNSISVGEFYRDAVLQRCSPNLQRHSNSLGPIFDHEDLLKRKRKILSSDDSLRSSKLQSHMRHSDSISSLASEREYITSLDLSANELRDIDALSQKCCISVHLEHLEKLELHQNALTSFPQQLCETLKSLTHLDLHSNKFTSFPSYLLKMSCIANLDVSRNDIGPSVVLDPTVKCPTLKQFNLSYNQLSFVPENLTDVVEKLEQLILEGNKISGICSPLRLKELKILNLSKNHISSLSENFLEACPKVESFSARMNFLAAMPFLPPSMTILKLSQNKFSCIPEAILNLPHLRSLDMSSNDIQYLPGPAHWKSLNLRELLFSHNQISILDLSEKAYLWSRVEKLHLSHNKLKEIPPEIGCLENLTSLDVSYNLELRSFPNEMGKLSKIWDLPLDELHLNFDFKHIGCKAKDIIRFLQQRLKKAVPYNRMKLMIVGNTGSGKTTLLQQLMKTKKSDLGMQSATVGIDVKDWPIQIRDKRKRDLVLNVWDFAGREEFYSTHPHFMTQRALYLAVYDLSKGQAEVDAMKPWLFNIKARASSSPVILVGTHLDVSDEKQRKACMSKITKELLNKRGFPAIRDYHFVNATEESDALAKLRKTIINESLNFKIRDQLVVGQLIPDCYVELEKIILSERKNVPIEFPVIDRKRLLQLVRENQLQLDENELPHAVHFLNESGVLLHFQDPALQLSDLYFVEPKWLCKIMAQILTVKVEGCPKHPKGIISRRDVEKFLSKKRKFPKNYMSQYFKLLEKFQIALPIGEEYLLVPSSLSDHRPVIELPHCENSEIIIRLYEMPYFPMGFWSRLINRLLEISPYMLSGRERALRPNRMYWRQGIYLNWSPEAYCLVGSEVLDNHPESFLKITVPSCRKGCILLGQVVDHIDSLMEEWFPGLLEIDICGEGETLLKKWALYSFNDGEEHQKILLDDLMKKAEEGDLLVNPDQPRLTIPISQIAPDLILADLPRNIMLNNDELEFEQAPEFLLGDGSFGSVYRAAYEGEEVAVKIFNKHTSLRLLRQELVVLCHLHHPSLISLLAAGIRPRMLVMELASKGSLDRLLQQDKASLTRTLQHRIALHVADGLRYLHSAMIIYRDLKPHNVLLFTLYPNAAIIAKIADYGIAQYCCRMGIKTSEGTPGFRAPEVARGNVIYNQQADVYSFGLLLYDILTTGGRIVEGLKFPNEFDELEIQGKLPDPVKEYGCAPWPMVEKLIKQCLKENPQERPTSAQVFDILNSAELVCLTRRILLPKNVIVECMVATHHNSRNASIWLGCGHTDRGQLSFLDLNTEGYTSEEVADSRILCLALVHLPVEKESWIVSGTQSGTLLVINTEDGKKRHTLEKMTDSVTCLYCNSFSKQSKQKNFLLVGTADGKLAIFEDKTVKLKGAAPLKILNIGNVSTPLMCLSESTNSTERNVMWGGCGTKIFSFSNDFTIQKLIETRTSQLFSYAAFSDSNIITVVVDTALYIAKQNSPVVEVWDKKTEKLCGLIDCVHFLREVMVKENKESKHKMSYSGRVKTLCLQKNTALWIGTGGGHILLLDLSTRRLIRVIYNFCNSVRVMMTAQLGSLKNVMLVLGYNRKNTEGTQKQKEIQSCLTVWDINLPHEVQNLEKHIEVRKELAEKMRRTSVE

On to `CC(C)Oc1cc2c(-c3cc(N4CCC(OC5CCC(OC6CCN(c7ccc8c(c7)n(C)c(=O)n8C7CCC(=O)NC7=O)CC6)CC5)CC4)ncn3)n[nH]c2cn1` (stereo not drawn) [Compound 28], for which the half-maximal degradation concentration (DC50) under setting [1] was determined as 17 nM. Further, under setting [2], the “WT LRRK2 **Dmax (%)” value was found to be 60%.

As for `Cc1nc2cc(N3CCC(CN4CCN(CC5CCN(c6cc(-c7n[nH]c8ccc(OC9(C)CC9)cc78)ncn6)CC5)C(C)(C)C4)CC3)ccc2n1C1CCC(=O)NC1=O` (stereo not drawn) [Compound 38, 3-{5-[4-({3,3-dimethyl-4-[(1-{6-[5-(1-methylcyclopropoxy)-1H-indazol-3-yl]pyrimidin-4-yl}piperidin-4-yl)methyl]piperazin-1-yl}methyl)piperidin-1-yl]-2-methyl-1H-1,3-benzodiazol-1-yl}piperidine-2,6-dione], the greatest degradation seen (Dmax) under setting [3] came out at 53% and the Dmax under setting [4] was 53%. The DC50 was found to be 1.2 nM under setting [1] and 1.2 nM under setting [5].

With `CC1(Oc2ccc3[nH]nc(-c4cc(N5CCC(CN6CCN(CC7CCN(c8cc(F)c9c(c8)ncn9C8CCC(=O)NC8=O)CC7)CC6(C)C)CC5)ncn4)c3c2)CC1` (stereo not drawn) [Compound 39, 3-{5-[4-({3,3-dimethyl-4-[(1-{6-[5-(1-methylcyclopropoxy)-1H-indazol-3-yl]pyrimidin-4-yl}piperidin-4-yl)methyl]piperazin-1-yl}methyl)piperidin-1-yl]-7-fluoro-1H-1,3-benzodiazol-1-yl}piperidine-2,6-dione], the greatest degradation seen (Dmax) under setting [3] was found to be 56% and the maximal degradation (Dmax) under setting [4] is 56%. The DC50 runs as follows: under setting [1], 4.9 nM; under setting [5], 4.9 nM.

For the compound `CC1(Oc2ccc3[nH]nc(-c4cc(N5CCC(CN6CCN(CC7CCN(c8cc9ncn(C%10CCC(=O)NC%10=O)c9cc8F)CC7)CC6(C)C)CC5)ncn4)c3c2)CC1` (stereo not drawn) [Compound 40, 3-{5-[4-({3,3-dimethyl-4-[(1-{6-[5-(1-methylcyclopropoxy)-1H-indazol-3-yl]pyrimidin-4-yl}piperidin-4-yl)methyl]piperazin-1-yl}methyl)piperidin-1-yl]-6-fluoro-1H-1,3-benzodiazol-1-yl}piperidine-2,6-dione], the Dmax reads like this: under setting [3], 59%; under setting [4], 59%. Half-maximal degradation under setting [1] (DC50) was put at 4.2 nM and the half-maximal degradation concentration (DC50) under setting [5] amounted to 4.2 nM.

`CC1(Oc2ccc3[nH]nc(-c4cc(N5CCC(CN6CCN(CC7CCN(c8ccc9c(ncn9C9CCC(=O)NC9=O)c8F)CC7)CC6(C)C)CC5)ncn4)c3c2)CC1` (stereo not drawn) [Compound 41, 3-{5-[4-({3,3-dimethyl-4-[(1-{6-[5-(1-methylcyclopropoxy)-1H-indazol-3-yl]pyrimidin-4-yl}piperidin-4-yl)methyl]piperazin-1-yl}methyl)piperidin-1-yl]-4-fluoro-1H-1,3-benzodiazol-1-yl}piperidine-2,6-dione]: the Dmax runs as follows: under setting [3], 49%; under setting [4], 49%. The DC50 reads like this: under setting [1], 3.7 nM; under setting [5], 3.7 nM.

For the compound `Cc1nc2cc(N3CCC(O[C@H]4CC[C@H](CN5CCN(c6cc(-c7n[nH]c8ccc(OC9(C)CC9)cc78)ncn6)CC5)CC4)CC3)ccc2n1C1CCC(=O)NC1=O` (stereo partly drawn) [Compound 42, rel-3-[2-methyl-5-(4-{[(1r,4r)-4-[(4-{6-[5-(1-methylcyclopropoxy)-1H-indazol-3-yl]pyrimidin-4-yl}piperazin-1-yl)methyl]cyclohexyl]oxy}piperidin-1-yl)-1H-1,3-benzodiazol-1-yl]piperidine-2,6-dione], the Dmax runs as follows: under setting [3], 42%; under setting [4], 52%. For the same compound, the DC50 runs as follows: under setting [1], 5.2 nM; under setting [5], 5.2 nM.

Turning to `CC1(Oc2ccc3[nH]nc(-c4cc(N5CCN(C[C@H]6CC[C@H](OC7CCN(c8cc(F)c9c(c8)ncn9C8CCC(=O)NC8=O)CC7)CC6)CC5)ncn4)c3c2)CC1` (stereo partly drawn) [Compound 43, rel-3-[7-fluoro-5-(4-{[(1r,4r)-4-[(4-{6-[5-(1-methylcyclopropoxy)-1H-indazol-3-yl]pyrimidin-4-yl}piperazin-1-yl)methyl]cyclohexyl]oxy}piperidin-1-yl)-1H-1,3-benzodiazol-1-yl]piperidine-2,6-dione], the Dmax is 49% under setting [3] and 49% under setting [4]. Besides, the half-maximal degradation concentration (DC50) by setting is: under setting [1], 6.2 nM; under setting [5], 6.2 nM.

Consider `CC1(Oc2ccc3[nH]nc(-c4cc(N5CCN(C[C@H]6CC[C@H](OC7CCN(c8cc9ncn(C%10CCC(=O)NC%10=O)c9cc8F)CC7)CC6)CC5)ncn4)c3c2)CC1` (stereo partly drawn) [Compound 44, rel-3-[6-fluoro-5-(4-{[(1r,4r)-4-[(4-{6-[5-(1-methylcyclopropoxy)-1H-indazol-3-yl]pyrimidin-4-yl}piperazin-1-yl)methyl]cyclohexyl]oxy}piperidin-1-yl)-1H-1,3-benzodiazol-1-yl]piperidine-2,6-dione], for which the greatest degradation seen (Dmax) was 50% under setting [3] and 50% under setting [4]. Besides, the DC50 is, setting by setting: under setting [1], 6.3 nM; under setting [5], 6.3 nM.

On to `CC1(Oc2ccc3[nH]nc(-c4cc(N5CCN(C[C@H]6CC[C@H](OC7CCN(c8ccc9c(ncn9C9CCC(=O)NC9=O)c8F)CC7)CC6)CC5)ncn4)c3c2)CC1` (stereo partly drawn) [Compound 45, rel-3-[4-fluoro-5-(4-{[(1r,4r)-4-[(4-{6-[5-(1-methylcyclopropoxy)-1H-indazol-3-yl]pyrimidin-4-yl}piperazin-1-yl)methyl]cyclohexyl]oxy}piperidin-1-yl)-1H-1,3-benzodiazol-1-yl]piperidine-2,6-dione], for which the Dmax was 56% under setting [3] and 56% under setting [4]. For the same compound, the half-maximal degradation concentration (DC50) by setting is: under setting [1], 3.9 nM; under setting [5], 3.9 nM.

`Cn1c(=O)n(C2CCC(=O)NC2=O)c2cccc(N3CCC(CN4CCN(CC5CCN(c6cc(-c7n[nH]c8cnc(OC9(C)CC9)cc78)ncn6)CC5)C(C)(C)C4)CC3)c21` (stereo not drawn) [Compound 47, 3-{4-[4-({3,3-dimethyl-4-[(1-{6-[5-(1-methylcyclopropoxy)-1H-pyrazolo[3,4-c]pyridin-3-yl]pyrimidin-4-yl}piperidin-4-yl)methyl]piperazin-1-yl}methyl)piperidin-1-yl]-3-methyl-2-oxo-2,3-dihydro-1H-1,3-benzodiazol-1-yl}piperidine-2,6-dione] registered a Dmax under setting [3] of 100%. This compound also showed a DC50 under setting [1] of 24 nM.

In turn, `Cn1c(=O)n(C2CCC(=O)NC2=O)c2ccc(N3CCC(CN4CCN(CC5CCN(c6cc(-c7n[nH]c8cnc(OC9(C)CC9)cc78)ncn6)CC5)C(C)(C)C4)CC3)cc21` (stereo not drawn) [Compound 48, 3-{5-[4-({3,3-dimethyl-4-[(1-{6-[5-(1-methylcyclopropoxy)-1H-pyrazolo[3,4-c]pyridin-3-yl]pyrimidin-4-yl}piperidin-4-yl)methyl]piperazin-1-yl}methyl)piperidin-1-yl]-3-methyl-2-oxo-2,3-dihydro-1H-1,3-benzodiazol-1-yl}piperidine-2,6-dione] returned a maximal degradation (Dmax) under setting [3] of 56% and a Dmax under setting [4] of 56%. Moreover, the 50% degradation concentration (DC50) is, setting by setting: under setting [1], 0.14 nM; under setting [5], 0.14 nM.

`CC(C)n1c(=O)n(C2CCC(=O)NC2=O)c2ccc(N3CCC(CN4CCN(CC5CCN(c6cc(-c7n[nH]c8cnc(OC9(C)CC9)cc78)ncn6)CC5)C(C)(C)C4)CC3)cc21` (stereo not drawn) [Compound 51, 3-{5-[4-({3,3-dimethyl-4-[(1-{6-[5-(1-methylcyclopropoxy)-1H-pyrazolo[3,4-c]pyridin-3-yl]pyrimidin-4-yl}piperidin-4-yl)methyl]piperazin-1-yl}methyl)piperidin-1-yl]-2-oxo-3-(propan-2-yl)-2,3-dihydro-1H-1,3-benzodiazol-1-yl}piperidine-2,6-dione] returned a maximal degradation (Dmax) under setting [3] of 64%. The same compound returned a DC50 under setting [1] of 1.1 nM.

For `Cn1c(=O)n(C2CCC(=O)NC2=O)c2ccc(N3CCC(OC4CCC(CN5CCN(c6cc(-c7n[nH]c8ccc(OC(C)(C)C)cc78)ncn6)CC5)CC4)CC3)cc21` (stereo not drawn) [Compound 54, rel-3-[3-methyl-2-oxo-5-(4-{[(1r,4r)-4-[(4-{6-[5-(tert-butoxy)-1H-indazol-3-yl]pyrimidin-4-yl}piperazin-1-yl)methyl]cyclohexyl]oxy}piperidin-1-yl)-2,3-dihydro-1H-1,3-benzodiazol-1-yl]piperidine-2,6-dione], the half-maximal degradation concentration (DC50) under setting [1] worked out at 0.33 nM. The “WT LRRK2 **Dmax (%)” value under setting [2] is given as 53%.

As for `CC(C)Oc1ccc2[nH]nc(-c3cc(N4CCN(CC5CCC(OC6CCN(c7ccc8c(c7)n(C)c(=O)n8C7CCC(=O)NC7=O)CC6)CC5)CC4)ncn3)c2c1` (stereo not drawn) [Compound 55, rel-3-[3-methyl-2-oxo-5-(4-{[(1r,4r)-4-[(4-{6-[5-(propan-2-yloxy)-1H-indazol-3-yl]pyrimidin-4-yl}piperazin-1-yl)methyl]cyclohexyl]oxy}piperidin-1-yl)-2,3-dihydro-1H-1,3-benzodiazol-1-yl]piperidine-2,6-dione], under setting [1], it took 1.5 nM to reach half-maximal degradation (DC50). The “WT LRRK2 **Dmax (%)” value under setting [2] is listed as 53%.

On to `Cn1c(=O)n(C2CCC(=O)NC2=O)c2ccc(N3CCC(O[C@H]4CC[C@@H](CN5CCN(c6cc(-c7n[nH]c8cnc(OC9(C)CC9)cc78)ncn6)CC5)CC4)CC3)cc21` (stereo partly drawn) [Compound 68, 3-[3-methyl-2-oxo-5-(4-{[(1s,4s)-4-[(4-{6-[5-(1-methylcyclopropoxy)-1H-pyrazolo[3,4-c]pyridin-3-yl]pyrimidin-4-yl}piperazin-1-yl)methyl]cyclohexyl]oxy}piperidin-1-yl)-2,3-dihydro-1H-1,3-benzodiazol-1-yl]piperidine-2,6-dione], for which the Dmax under setting [3] amounted to 35%. The same compound registered a DC50 under setting [1] of 1.2 nM.
